Results published in patent US20120201762A1, “ORAL CARE COMPOSITION” (COLGATE-PALMOLIVE COMPANY, priority 2009, published 2012).

Tests used:
[1] = test system: VSC in whole saliva; test: Reduction of VSC in whole saliva incubated overnight with cysteine and an amino acid (GC); conditions: for VSC Reduction (%): relative to saliva and cysteine alone, 10% of 0.1% amino acid solution added to 50% whole saliva, overnight incubation; for Effect on VSC in saliva (in words): whole saliva with cysteine
Experimental: The effect of serine and other amino acids on VSC was tested. Whole saliva was incubated overnight with cysteine and an additional amino acid selected from serine, proline, tyrosine, glycine, aspargine, glutamic acid, and histidine. In this experiment, 10% of 0.1% amino acid solution was added to 50% whole saliva. GC measurements were made for VSC.

[2] = test system: indole in whole saliva; test: Reduction of indole in whole saliva incubated with tryptophan and serine (hexanes extraction, GC); conditions: whole saliva with tryptophan 0.14%; for Area Under the Curve (AUC), indole by GC: overnight at 37° C., control without serine 642403
Experimental: The effect of serine on indole was tested. Whole saliva with tryptophan (0.14%) and various concentrations of serine was incubated overnight at 37° C. After 24 h, the samples were allowed to cool to 25° C. The samples were extracted with hexanes and the organic layer was used for GC quantification.

[3] = test system: VSC in whole saliva; test: Headspace VSC in whole saliva incubated with zinc lactate with and without serine (GC); conditions: zinc lactate 0.16%
Experimental: The effect of zinc lactate and serine on VSC was tested. Whole saliva with tryptophan (0.14%), zinc lactate (0.16%), and when necessary, serine (0.42%), was incubated overnight at 37° C. After 24 h, the samples were allowed to cool to 25° C. The samples were then quantified for headspace VSC using a GC.

[4] = test system: indole in whole saliva; test: Indole production in whole saliva incubated with tryptophan, zinc lactate with and without serine (GC); conditions: for Indole (ppm): serine 0.42% where present, whole saliva with tryptophan 0.14%, overnight at 37° C.
Experimental: The effect of zinc lactate and serine on indole was tested. Whole saliva with tryptophan (0.14%), various concentrations of zinc lactate, and when necessary, serine (0.42%), was incubated overnight at 37° C. After 24 h, the samples were allowed to cool to 25° C. The samples were extracted with hexanes (2 mL) and the organic layer (1 mL) was used for GC quantification.

Q: NC(=O)C[C@H](N)C(=O)O [Asparagine] was tested. Which “VSC Reduction (%)” value [1] did it give?
A: −2.14%

Q: How did the “VSC Reduction (%)” value [1] turn out when N[C@@H](CCC(=O)O)C(=O)O [Glutamic acid, glutamic acid] was run?
A: −5.2%

Q: Which “VSC Reduction (%)” value [1] does the source give for NCC(=O)O [Glycine, glycine] here?
A: 14%

Q: N[C@@H](Cc1c[nH]cn1)C(=O)O [Histidine, histidine] was tested. Which “VSC Reduction (%)” value [1] did it give?
A: 1.36%

Q: With O=C(O)[C@@H]1CCCN1 [Proline, proline] as the compound, how does the “VSC Reduction (%)” value [1] read?
A: 6.99%

Q: What does the source list for N[C@@H](CO)C(=O)O [Serine, (2S)-2-amino-3-hydroxypropanoic acid]?
A: VSC Reduction (%) [1]: 36.56%; Effect on VSC in saliva (in words) [1]: greatest percent reduction of VSC; Effect on VSC in saliva (in words) ([1]; listed as serine): able to reduce VSC in saliva; Area Under the Curve (AUC), indole by GC ([2]; serine 0.21%): 584720; Area Under the Curve (AUC), indole by GC ([2]; serine 0.42%): 532053; Area Under the Curve (AUC), indole by GC ([2]; serine 0.84%): 542136; Effect on amount of indole in saliva (in words) [2]: able to reduce amount of indole in saliva; Effect of serine added to zinc lactate on VSC production (in words) ([3]; serine 0.42%): enhances the effect of zinc lactate and reduces VSC production; Effect of serine added to zinc lactate on indole production (in words) ([4]; various concentrations of zinc lactate, serine 0.42%): enhances the effect of zinc lactate and reduces indole production

Q: How did the “VSC Reduction (%)” value [1] turn out when N[C@@H](Cc1ccc(O)cc1)C(=O)O [Tyrosine, tyrosine] was run?
A: 0.06%

Q: CC(O)C(=O)[O-].CC(O)C(=O)[O-].[Zn+2] (stereo not shown) [Zinc Lactate, zinc lactate] was tested. Which “VSC (ppb)” value ([3]; headspace VSC, whole saliva with tryptophan 0.14%, serine 0.42% where present, overnight at 37° C.) did it give?
A: 109.25 ppb

Q: And the “Indole (ppm)” value ([4]; zinc lactate 0.09%)?
A: 9.99 ppm

Q: And the “Indole (ppm)” value ([4]; zinc lactate 0.16%)?
A: 5.09 ppm

Q: What about the “Indole (ppm)” value ([4]; zinc lactate 0.23%) of the same compound?
A: 4.71 ppm
